Measurements from US7868163B2, “Adenyl dinucleotides with antitumour activity and a method of preparing thereof” (Universita' Degli Studi Di Genova, priority 2005, dated 2011).
pIC50: −log10 of the molar value. Read-outs that look alike come from different tables or passages of the source.

What was measured:
[1] = test system: CFC (colony forming cells); assay: CFC colony growth from cord blood mononuclear cells in semi-solid medium; type: cell-based, human; conditions: Homo sapiens; 24 hours incubation of cord blood mononuclear cells, colonies counted after 2 weeks; read-out: IC50, inhibition of CFC colony growth
Description: Mononuclear cells isolated from cord blood were incubated in the presence of various concentrations of P18 (▴), P24 (▪) and the iso-adenosine units resulting from the enzymatic digestion of P18 (Δ) and P24 (□). After 24 hours, aliquots of cells (1-2×10^4) were seeded in semi-solid medium to allow for colony growth. Results are expressed as percentage of inhibition of colony growth compared with controls, represented by cells incubated with the same dilution of chromatographic buffer as present in the HPLC-purified compounds. The IC50 values were obtained from the logarithmic regression curves (R≧0.97). The results shown in this figure are the mean from at least three different experiments.
Mononuclear cells were isolated from cord blood (CB MNC) by a density gradient, washed by centrifugation and resuspended in complete medium (Mosmann, T. (1983) J. Immunol. Methods 65, 55-63). Cells (10^6/ml) were incubated for 24 hours in complete medium in the presence of different dinucleotides at concentrations comprised between 20 and 0.4 μM. Then, aliquots of cells (1-2×10^4) were seeded in semi-solid medium, supplemented with haemopoietic growth factors (Methocult, Stem Cell Technologies, Vancouver, BC), in order to allow colonies to develop. After 2 weeks in culture, the colonies which were grown were microscopically identified according to standard criteria (CFU-E, CFU-GM and CFU-GEM) and counted: each colony identifies a colony forming cell (CFC).

Recombinant CD38 = assay: Hydrolysis by recombinant CD38
Description: (§1) ADP-ribosyl cyclases from lower and higher Metazoa were incubated in the presence of 0.1 mM cADPR and 1 mM adenine at pH 7.4 in 10 mM Tris-HCl (A, B and C) or in PBS-glucose (D) at 22° C. (A and B) or at 37° C. (C and D) for 4 hours. Aliquots of the various incubations were deproteinised with TCA (trichloroacetic acid) and subjected to HPLC (analytical phosphate). Chromatograms representative of each incubation are shown. A. A. polypoides; B. A. californica; C. Human CD38 (recombinant); D. Human HeLa cells transfected with sense and antisense human CD38 (dashed chromatogram).
(§2) In table 1, the absolute values of the peak-forming and -hydrolysing activities are compared with the cADPR-forming and -hydrolysing activities for each enzyme. The activities are expressed as nmol/min/mg.

[2] = test system: HeLa-CD38^+ (whole cells); assay: Hydrolysis by CD38+ HeLa whole cells
Description: as §1, §2

[3] = test system: A. polypoides ADP-ribosyl cyclase; assay: Hydrolysis by purified Axinella polypoides ADP-ribosyl cyclase
Description: as §1, §2

[4] = target: T1, A. californica ADP-ribosyl cyclase (Aplysia californica, UniProt P29241); assay: Hydrolysis by Aplysia californica ADP-ribosyl cyclase; type: in vitro ADME; conditions: P18 to adenine and ADPR
T1 construct: The cyclase purified from the mollusc Aplysia californica was purchased from Sigma; purchased Sigma; host or cells: purified from the mollusc
T1 sequence (P29241 25-282): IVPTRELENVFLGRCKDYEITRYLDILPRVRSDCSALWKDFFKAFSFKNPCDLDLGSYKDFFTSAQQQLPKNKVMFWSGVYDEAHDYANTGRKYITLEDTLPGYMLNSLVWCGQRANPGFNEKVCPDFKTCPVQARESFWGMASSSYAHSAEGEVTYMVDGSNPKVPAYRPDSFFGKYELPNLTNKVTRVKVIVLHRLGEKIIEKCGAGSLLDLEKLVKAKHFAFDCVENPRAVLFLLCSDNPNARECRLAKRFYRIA
Description: (A and B) or at 37° C. (C and D) for 4 hours. […] Chromatograms representative of each incubation are shown. A. A. polypoides; B. A. californica; C.
The activities are expressed as nmol/min/mg.

CD38^− cells = assay: Uptake of extracellularly added dinucleotides in CD38- cells; type: in vitro ADME, human; conditions: 15 μM added extracellularly
[5] = Storage stability of purified lyophilised peaks; conditions: stored at −20° C., several months (approx. 6)
Description: The cyclase purified from A. polypoides was used for the production of the dinucleotides for structural and functional studies. In a total volume of 0.4 ml of 10 mM Tris-HCl, pH 7.0, 0.05 mg of purified cyclase were incubated with 1 mM cADPR (or NAD^+), 5 mM adenine and 2 mM MgCl2 at room temperature. cADPR or NAD^+ was added to the reaction mixture every 6 hours, while every 24 hours fresh cyclase was added and an aliquot of the incubation was deproteinised with TCA (5% final concentration) and analysed by HPLC (analytical phosphate) to monitor dinucleotide production. After 3-5 days, the resulting incubation was extracted with TCA and 250 μl aliquots were injected into an HPLC column (preparative phosphate). The P18, P24 and P31 peaks were collected, lyophilised in a RotoVapor, re-dissolved in deionised water and injected into an HPLC column (preparative formate). […] The purified peaks produced by Axinella cyclase were used in in vitro experiments on the various cell types described hereinafter, for the enzymatic production of mononucleotides and nucleosides (see below), as internal and external HPLC standards to identify the dinucleotides in cell extracts, and for detecting the absorption spectra stored in the liquid chromatograph library as standards.

Nc1ncn([C@@H]2O[C@H](CO)[C@@H](O)[C@H]2O)c2ncnc1-2 [iso-adenosine from P24, 3-β-ribofuranosyladenine]
pIC50 [1]: 5.30

N=c1c2ncn3c2ncn1[C@@H]1O[C@H](COP(=O)(O)OP(=O)(O)OC[C@H]2O[C@@H]3[C@H](O)[C@@H]2O)[C@@H](O)[C@H]1O [cADPR, cyclic ADP-ribose, reference compound]
hydrolysis activity (Recombinant CD38): 308 nmol/min/mg | hydrolysis activity [2]: 0.49 nmol/min/mg | hydrolysis activity [3]: 170 nmol/min/mg | hydrolysis activity [4]: 770 nmol/min/mg

Nc1c2ncnc-2ncn1[C@@H]1O[C@H](CO)[C@@H](O)[C@H]1O [iso-adenosine from P18, 1-β-D-ribofuranosyladenine]
pIC50 [1]: 4.43

Nc1ncnc2c1ncn2[C@@H]1O[C@H](CO[P@](=O)(O)O[P@](=O)(O)OC[C@H]2O[C@@H](n3cnc4c(N)ncnc43)[C@H](O)[C@@H]2O)[C@@H](O)[C@H]1O [P31, diadenosine diphosphate, reference compound]
hydrolysis activity ([2]; HeLa-CD38^+ whole cells, P18 and P24 to adenine and ADPR): 0.15 nmol/min/mg | rate of increase of intracellular concentration (uptake) (CD38^− cells): approx. 2.4 pmol/min/mg | degradation on storage [5]: no dinucleotide degradation was observed
